Data from patent US8058243B2, “Method for treating a brain cancer with ifenprodil” (HSC Research and Development Limited Partnership, priority 2006, dated 2011).
Where a name gives a salt, the structure may show the parent alone. Read-outs that look alike come from different tables or passages of the source.

Tested on: murine neural precursor cells (neurosphere cultures)
Experiment: HTS of LOPAC library against secondary neurosphere cultures, MTT proliferation assay at 3 μM, day 7 (z score, P value)
Format: cell-based, mouse
[1] = LOPAC library screen, 3 μM, MTT, neurosphere cultures
[2] = LOPAC primary screen, neurosphere MTT proliferation, 3 μM, day 7
[3] = yes/no: significantly inhibited neurosphere proliferation in primary screen
[4] = yes/no: significantly inhibited neurosphere proliferation (P<0.01) in primary screen
[5] = yes/no: significantly inhibited neurosphere proliferation (P<0.01) in the primary screen
[6] = yes = significantly inhibited neurosphere proliferation (P<0.01) in the primary screen
[7] = LOPAC library screen, 3 μM, MTT, secondary neurosphere cultures, day 7
[8] = LOPAC library screen at 3 μM, secondary neurosphere cultures, MTT
[9] = primary LOPAC screen, 3 μM, MTT, neurosphere proliferation
[10] = yes/no: significantly inhibited neurosphere proliferation in the primary screen
[11] = LOPAC screen, neurosphere MTT proliferation, 3 μM, day 7
[12] = LOPAC library screen at 3 μM, MTT, secondary neurosphere cultures, screened in singlets

Compound: N#CC(C#N)=C(N)/C(C#N)=C/c1ccc(O)cc1 [Tyrphostin AG 112]
- Z Score [1]: 0.3333
- Z score [2]: 0.333
- Activity [3]: no

Compound: Cc1ccccc1N1CCN(S(=O)(=O)CC23CCC(CC2NC(=O)C(N)CCS(C)(=O)=O)C3(C)C)CC1 [L-368,899]
- Z Score: 0.2909
- Z score [2]: 0.291
- Activity [4]: no

Compound: CC(CN1c2ccccc2Sc2ccccc21)N(C)C (stereo not drawn) [Promethazine hydrochloride]
- Z Score [1]: 0.4746
- Z score [2]: 0.475
- Activity [5]: no

Compound: Foliosidine
- Z Score: −0.0969
- Z score [2]: −0.097
- Activity [4]: no

Compound: NC(=O)c1ccccc1C(=O)N[C@@H](CCC(=O)O)C(=O)O.[Na].[Na].[Na] [Phthalamoyl-L-glutamic acid trisodium]
- Z Score (168 h, 3 µM): 0.2509
- Z score (168 h, 3 µM): 0.251
- Activity [3]: no

Compound: CC1CCN=C(N)S1.Cl (racemic) [(±)-AMT hydrochloride]
- Z score [2]: −2.366
- Activity [6]: yes

Compound: CC(C)(C)NCC(O)c1ccc(O)c(CO)c1 (stereo not drawn) [Salbutamol]
- Z Score [7]: −1.678
- Z score [2]: −1.678
- Activity [3]: no

Compound: CCNC(=O)N1CCN(CCCC(c2ccc(F)cc2)c2ccc(F)cc2)CC1 [Amperozide hydrochloride]
- Z Score (168 h, 3 µM): −0.4126
- Z score (168 h, 3 µM): −0.413
- Activity [6]: no

Compound: CC(C)Cc1ccc([C@H](C)C(=O)O)cc1 [S(+)-Ibuprofen]
- Z Score [8]: −0.7335
- Z score [2]: −0.733
- Activity [4]: no

Compound: CC(C)(CO)Cc1cc(C(C)(C)C)c(O)c(C(C)(C)C)c1 [CGP-7930]
- Z Score: −0.411
- Z score [9]: −0.411
- Activity [10]: no

Compound: Cl.NCC(O)c1cc(O)c(O)cc1F (stereo not drawn) [6-Fluoronorepinephrine hydrochloride]
- Z Score: −1.168
- Z score [11]: −1.168
- Activity [4]: no

Compound: CN(N=O)c1cc(O)ccc1O [Dephostatin]
- Z Score: 0.6209
- Z score [11]: 0.621
- Activity [4]: no

Compound: Oc1cc(-c2ccccc2)nc2nc(Cl)ccc12 [7-Chloro-4-hydroxy-2-phenyl-1,8-naphthyridine]
- Z Score (168 h, 3 µM): −0.401
- Z score (168 h, 3 µM): −0.401
- Activity [4]: no

Compound: CC1=C(/C=C/C(C)=C/C=C/C(C)=C\C(=O)O)C(C)(C)CCC1 [13-cis-retinoic acid]
- Z Score [7]: −1.469
- Z score [2]: −1.469
- Activity [5]: no

Compound: CC[N+](C)(C)c1cccc(O)c1 [Edrophonium chloride]
- Z Score: −0.8064
- Z score [2]: −0.806
- Activity [4]: no

Compound: NC(=O)OCC(COC(N)=O)c1ccccc1 [Felbamate]
- Z Score [8]: −0.4586
- Z score [2]: −0.459
- Activity [4]: no

Compound: O=C1Nc2ccc(I)cc2/C1=C/c1cc(Br)c(O)c(Br)c1 [GW5074]
- Z Score: −0.1619
- Z score [2]: −0.162
- Activity [4]: no

Compound: CN(C)C(=O)N=NC(=O)N(C)C [N,N,N′,N′-Tetramethylazodicarboxamide]
- Z Score (168 h, 3 µM): −0.6393
- Z score (168 h, 3 µM): −0.639
- Activity [4]: no

Compound: COc1cc(C(O)CO)ccc1OS(=O)(=O)[O-].[K+] (stereo not drawn) [MHPG sulfate potassium]
- Z Score: −0.5556
- Z score [2]: −0.556
- Activity [4]: no

Compound: Cl.c1ccc2sc(C3(N4CCCCC4)CCCCC3)cc2c1 [BTCP hydrochloride]
- Z Score: 0.8361
- Z score [2]: 0.836
- Activity [6]: no

Compound: N[C@@H](Cn1oc(=O)[nH]c1=O)C(=O)O [(+)-Quisqualic acid]
- Z Score: 0.4361
- Z score [2]: 0.436
- Activity [3]: no

Compound: R(−)-Denopamine
- Z Score [7]: −4.486
- Z score [2]: −4.486
- Activity [5]: yes

Compound: C=CCN1C[C@H](C)N([C@H](c2ccc(C(=O)N(CC)CC)cc2)c2cccc(OC)c2)C[C@H]1C [SNC80]
- Z Score: −0.4575
- Z score [2]: −0.457
- Activity [3]: no

Compound: CN(C)CCOC(C)(c1ccccc1)c1ccccn1 (stereo not drawn) [Doxylamine succinate]
- Z Score [12]: 1.736
- Z score [11]: 1.736
- Activity [4]: no

Compound: N#C/C(=C\c1ccc(O)c(O)c1)C(N)=S [Tyrphostin 47]
- Z Score: 0.1775
- Z score [9]: 0.178
- Activity [10]: no

Compound: N.N.N.N.N.N.N.N.N.N.N.N.N.N.[Cl-].[Cl-].[Cl-].[Cl-].[Cl-].[Cl-].[O-2].[O-2].[Ru+3].[Ru+3].[Ru+4] [Ruthenium red]
- Z Score: −0.07388
- Z score [2]: −0.074
- Activity [3]: no

Compound: CC(=O)Nc1nnc(S(N)(=O)=O)s1 [Acetazolamide]
- Z Score [1]: 1.111
- Z score [2]: 1.111
- Activity [6]: no

Compound: NC(N)=Nc1ccc2[nH]c3c(c2c1)C[C@@]1(O)[C@H]2Cc4ccc(O)c5c4[C@@]1(CCN2CC1CC1)[C@H]3O5.O=C(O)C(F)(F)F.O=C(O)C(F)(F)F
- Z Score: −0.2037
- Z score [2]: −0.204
- Activity [4]: no

Compound: N[C@@H](Cc1c[nH]c2ccccc12)C(=O)O [L-Tryptophan]
- Activity: no
- Z Score: 0.2241
- Z score: 0.224

Compound: CN(C)CC/C=C1/c2ccccc2Sc2ccc(Cl)cc21 [Chlorprothixene hydrochloride]
- Z Score (168 h, 3 µM): −5.008
- Z score (168 h, 3 µM): −5.008
- Activity [5]: yes

Compound: S=C(Nc1ccccc1)Nc1nccs1 [1-Phenyl-3-(2-thiazolyl)-2-thiourea]
- Z Score (168 h, 3 µM): 1.208
- Z score (168 h, 3 µM): 1.208
- Activity [3]: no

Compound: C[C@@]1(C2CCCC2)Cc2cc(OCC(=O)O)c(Cl)c(Cl)c2C1=O [R(+)-IAA-94]
- Z Score: −0.01015
- Z score [2]: −0.010
- Activity [4]: no

Compound: CCN(CC)C(=S)SSC(=S)N(CC)CC [Tetraethylthiuram disulfide]
- Z Score [12]: 2.347
- Z score [9]: 2.347
- Activity [10]: no

Compound: COc1cc2c(CCNC(C)=O)c[nH]c2cc1O [6-Hydroxymelatonin]
- Z Score [1]: 0.3767
- Z score [2]: 0.377
- Activity [4]: no

Compound: CC(N)(C(=O)O)c1ccc(C(=O)O)cc1 (stereo not drawn) [(B1)-alpha-Methyl-4-carboxyphenylglycine]
- Z Score: 0.727

Compound: O=C(O)/C=C1\CCCc2ccccc2C1O (stereo not drawn) [NCS-382]
- Z Score: −1.733
- Z score [2]: −1.733
- Activity [6]: no

Compound: CN1CCc2cccc(Cl)c2CC1 [SKF 86466]
- Z Score: 0.8822
- Z score [2]: 0.882
- Activity [6]: no

Compound: COCCc1ccc(OCC(O)CNC(C)C)cc1.O=C(O)C(O)C(O)C(=O)O (stereo not drawn) [(B1)-Metoprolol (+)-tartrate]
- Z Score: −0.2689

Compound: Nc1ncnc2c1nc(Sc1ccc(Cl)cc1)n2C1OC2COP(=O)(O)OC2C1O (stereo in doubt) [8-(4-Chlorophenylthio)-cAMP sodium]
- Z Score [1]: 1.217
- Z score [11]: 1.217
- Activity [4]: no

Compound: O=C(CCCN1CCC(O)(c2ccc(Cl)cc2)CC1)c1ccc(F)cc1 [Haloperidol]
- Z Score [8]: −0.7399
- Z score [2]: −0.740
- Activity [4]: no

Compound: CCCCS(=N)(=O)CCC(N)C(=O)O (racemic) [DL-Buthionine-[S,R]-sulfoximine]
- Z Score [8]: −1.022
- Z score [11]: −1.022
- Activity [4]: no

Compound: CN(C)CCOC(c1ccccc1)c1ccccc1 [Diphenhydramine hydrochloride]
- Z Score [1]: 0.8449
- Z score [2]: 0.845
- Activity [5]: no

Compound: OC[C@H]1O[C@@H](n2cnc3c(N[C@H]4CC5CCC4C5)ncnc32)[C@H](O)[C@@H]1O (stereo partly drawn) [(S)-ENBA]
- Z Score: 0.2078
- Z score [2]: 0.208
- Activity [4]: no

Compound: CCCNCC(O)COc1ccccc1C(=O)CCc1ccccc1 (stereo not drawn) [Propafenone hydrochloride]
- Z Score [8]: −0.9673
- Z score [2]: −0.967
- Activity [6]: no

Compound: Cl.NCC(O)c1ccc(O)cc1 (stereo not drawn) [(B1)-Octopamine hydrochloride]
- Z Score: −1.567

Compound: CCCCCCCC/C=C\CCCCCCCC(=O)NCCO [N-Oleoylethanolamine]
- Z Score (168 h, 3 µM): −0.4116
- Z score (168 h, 3 µM): −0.412
- Activity [3]: no

Compound: CCOC(=O)[N-]c1cn(N2CCOCC2)n[o+]1 [Molsidomine]
- Z Score [12]: 1.567
- Z score [2]: 1.567
- Activity [6]: no

Compound: R-(−)-Fluoxetine hydrochloride
- Activity: no
- Z Score [8]: −0.1281

Compound: Br.CCCN(CCC)C1CCc2ccc(O)cc2C1 (stereo not drawn) [(B1)-7-Hydroxy-DPAT hydrobromide]
- Z Score: −11.1

Compound: N=C(N)NC(=O)Cc1c(Cl)cccc1Cl [Guanfacine hydrochloride]
- Z Score [1]: 0.9271

Compound: CCCn1c(=O)[nH]c(=O)c2[nH]cnc21 [3-n-Propylxanthine]
- Z Score [8]: −1.094
- Z score [2]: −1.094
- Activity [6]: no

Compound: CC(=O)NCCc1ccc(O)c(O)c1.O [N-Acetyldopamine monohydrate]
- Z Score: 0.4667
- Z score [9]: 0.467
- Activity [10]: no

Compound: CCCC(C(=O)OCCN(CC)CC)(c1ccccc1)c1ccccc1.Cl [SKF-525A hydrochloride]
- Z Score: −1.928
- Z score [2]: −1.928
- Activity [5]: no

Compound: CCC1(C)CC(=O)NC1=O (stereo not drawn) [Ethosuximide]
- Z Score [8]: −0.6124
- Z score [2]: −0.612
- Activity [4]: no

Compound: C[C@]12CC[C@@H](O)C[C@@H]1CC[C@@H]1[C@@H]2CC[C@]2(C)C(=O)CC[C@@H]12 [Androsterone]
- Activity: no
- Z Score: 1.947
- Z score: 1.947

Compound: NC(=O)CN1CCCC1=O [Piracetam]
- Z Score [8]: −0.3758
- Z score [2]: −0.376
- Activity [6]: no

Compound: CN1CCN(CCCN2c3ccccc3Sc3ccc(Cl)cc32)CC1 [Prochlorperazine dimaleate]
- Z Score (168 h, 3 µM): −0.8602
- Z score (168 h, 3 µM): −0.860
- Activity [5]: no
